Patent US4609730A, “7-[substituted imino-2-(2-aminothiazol-4-yl)-acetamido]-3(2,2-dihalovinyl or ethynyl)-3-cephem-4-carboxylic acid (syn isomers), having antimicrobial activities” (Fujisawa Pharmaceutical Co., Ltd., priority 1982, dated 1986)
In brackets after ≈: the same amount, converted by molar mass.

What was measured:
Klebsiella pneumoniae 20 = test: Minimal inhibitory concentration (MIC), two-fold agar-plate dilution method, Klebsiella pneumoniae 20; assay type: cell-based; details: HI-agar, 37° C., 20 hours, 10^8 viable cells per ml
Protocol: (§1) In vitro antibacterial activity was determined by the two-fold agar-plate dilution method as described below.
(§2) One loopful of an overnight culture of each test strain in Trypticase-soy broth (10^8 viable cells per ml) was streaked on heart infusion agar (HI-agar) containing graded concentrations of representative test compound, and the minimal inhibitory concentration (MIC) was expressed in terms of μg/ml after incubation at 37° C. for 20 hours.

Proteus mirabilis 18 = test: Minimal inhibitory concentration (MIC), two-fold agar-plate dilution method, Proteus mirabilis 18; assay type: cell-based; details: HI-agar, 37° C., 20 hours, 10^8 viable cells per ml
Protocol: as §1, §2

Proteus vulgaris 2 = test: Minimal inhibitory concentration (MIC), two-fold agar-plate dilution method, Proteus vulgaris 2; assay type: cell-based; details: HI-agar, 37° C., 20 hours, 10^8 viable cells per ml
Protocol: as §1, §2

[1] = Urinary excretion in rats after oral administration; assay type: in vivo; details: rat, 100 mg/kg, urine 0-24 hours, bioassay, read-out: Urinary recovery in 24 hours
Protocol: Urine of rats was collected with a urine collector at 0 to 6, and 6 to 24 hours after oral administration of 100 mg/kg of the test antibiotic. The antibiotic levels in the urine samples were bioassayed with the standard solution prepared with M/15 phosphate buffer pH 7.0) and the urinary recovery in 24 hours was calculated.

in vivo = details: rat, po, 100 mg/kg
Protocol: Rats anesthetized with pentobarbital were fixed in supine position, and a polyethylene cannula was inserted into the bile duct. Bile samples were collected at 0 to 3, 3 to 6, and 6 to 24 hours after oral administration of 100 mg/kg of the test antibiotic. The antibiotic levels in the bile samples were bioassayed with the standard solution prepared with M/15 phosphate buffer (pH 7.0) and the biliary recovery in 24 hours were calculated.

MIC (Klebsiella pneumoniae 20) | MIC (Proteus mirabilis 18) | MIC (Proteus vulgaris 2) | dose excreted at 24 h [1] | dose excreted at 24 h (in vivo) | SMILES
0.1 µg/mL (≈ 0.222 µM) | 0.05 µg/mL (≈ 0.111 µM) | 0.025 µg/mL (≈ 0.0554 µM) | 20% | 7.46% | C#CC1=C(C(=O)O)N2C(=O)C(NC(=O)/C(=N\OCC(=O)O)c3csc(N)n3)C2SC1 (stereo not drawn) [A, 7-[2-Carboxymethoxyimino-2-(2-aminothiazol-4-yl)-acetamido]-3-ethynyl-3-cephem-4-carboxylic acid (syn isomer)]
0.025 µg/mL (≈ 0.0523 µM) | 0.05 µg/mL (≈ 0.105 µM) | 0.025 µg/mL (≈ 0.0523 µM) | – | – | CO/N=C(\C(=O)NC1C(=O)N2C(C(=O)O)=C(C=C(Cl)Cl)CSC12)c1csc(N)n1 (stereo not drawn) [B, 7-[2-Methoxyimino-2-(2-aminothiazol-4-yl)acetamido]-3-(2,2-dichlorovinyl)-3-cephem-4-carboxylic acid (syn isomer)]
